In patent US20230165846A1, “HETEROCYCLIC GLP-1 AGONISTS” (Gasherbrum Bio, Inc., priority 2020, published 2023):

Legend:
GLP-1 Receptor [1] = biological target: T1, GLP-1 Receptor (Homo sapiens, UniProt P43220); test: GLP-1R agonist cAMP stimulation assay, Method 2 (HDB HEK293/GLP1R/CRE-LUC, Cisbio cAMP dynamic 2 kit); format: cell-based; settings: HEK293/GLP1R/CRE-LUC cells (HD Biosciences); 30 min at 37° C.; 0.5 mM IBMX, 0.1% BSA; geometric mean where n>=2; read-out: GLP1R cAMP Stimulation DR: EC50 (nM) Method 2 (HDB)
T1 sequence (P43220 24-463): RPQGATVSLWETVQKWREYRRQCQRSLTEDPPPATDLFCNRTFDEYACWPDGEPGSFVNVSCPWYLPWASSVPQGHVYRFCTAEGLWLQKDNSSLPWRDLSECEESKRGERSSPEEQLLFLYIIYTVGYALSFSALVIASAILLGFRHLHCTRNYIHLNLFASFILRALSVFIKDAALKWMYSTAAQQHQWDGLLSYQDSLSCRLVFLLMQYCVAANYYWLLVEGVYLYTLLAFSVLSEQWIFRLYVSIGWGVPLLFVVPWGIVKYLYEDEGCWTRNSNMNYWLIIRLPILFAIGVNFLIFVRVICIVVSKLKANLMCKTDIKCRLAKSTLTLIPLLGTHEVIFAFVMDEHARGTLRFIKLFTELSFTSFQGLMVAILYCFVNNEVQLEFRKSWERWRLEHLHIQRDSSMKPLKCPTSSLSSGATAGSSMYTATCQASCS
Method: Method 2: Activation of GLP-1 receptor is known to stimulate cyclic AMP (cAMP) production in cells which indicates primary coupling to the Gas subunit of the G protein heterotrimeric complex.
To optimize functional activity directed toward Gas coupling, a HEK293/CRE-Luc cell line developed by HDB stably expressing the GLP-1 Receptor was used. 200× concentration of compound working solutions were prepared (Agilent Technologies Bravo) with ½log serial dilution in 384-well Echo LDV plate (Labcyte, Cat# LP-0200). […] Seal the plate and incubate at 37° C. with 5% CO2 for 30 min.
After incubation the cAMP assay signal was generated using cAMP dynamic 2 Kit (Cisbio). 5 µL cAMP-d2 working solution was added to each well, followed with 5 µL Anti-cAMP antibody-cryptate working solution added to each well using ThermoFisher Multidrop Combi. Incubate at room temperature for 1 hour protected from light.
(§1) %Activity = 100% x (mean RLU of test sample - mean RLU of vehicle control) / (mean RLU of MAX control - mean RLU of vehicle control))
(§2) This is done to account for the lognormal distribution of multiple estimates of EC50 values. In practice geometric mean is calculated by first generating log values of EC50, averaging replicates and then calculating the antilog of the average.

GLP-1 Receptor [2] = biological target: T1, GLP-1 Receptor; test: GLP-1R agonist cAMP stimulation assay, Method 1 (DiscoverX CHO-K1, enzyme fragment complementation); format: cell-based; settings: CHO-K1 cell line (DiscoverX) stably expressing GLP-1 Receptor; incubation 30 or 60 min at 37° C.; geometric mean where n>=2; read-out: GLP1R cAMP Stimulation DR: EC50 (nM) Method 1
Method: Activation of GLP-1 receptor is known to stimulate cyclic AMP (cAMP) production in cells which indicates primary coupling to the Gas subunit of the G protein heterotrimeric complex.
Method 1: To optimize functional activity directed toward Gas coupling, a CHO—K1 cell line developed by DiscoverX stably expressing the GLP-1 Receptor was used. Cells expressing GLP-1 receptor were plated in a 384-well microtiter plates and incubated overnight at 37° C. with 5% CO2 to allow the cells to attach and grow. Media was then aspirated from the cells and replaced with 15 uL 2:1 Hanks Balanced Salt Solution (HBSS)/10mM Hepes : cAMP XS+ Ab reagent. Five microliters (5 uL) of previously generated compound sample stocks at 4x final concentration in assay buffer were then added to the cells and allowed to incubate at 37° C. for 30 or 60 minutes.
After incubation the assay signal was generated using enzyme fragment complementation (EFC). In EFC, the enzyme B-galactosidase is split into two complementary portions (EA and ED). The fragment ED is fused to cAMP and in the assay format competes with endogenous cAMP for binding to a cAMP specific antibody. Activated β—Gal is formed when exogenous EA fragment binds to free ED-cAMP (not bound to cAMP specific antibody). Activated enzyme levels are detected through conversion of β-gal chemiluminescent substrate which generates a detectable luminescence signal and read on standard microtiter plate.
The methodology for detection of cAMP using EFC requires incubation with 20uL of cAMP XS+ ED/CL lysis cocktail for one hour followed by incubation with 20 uL cAMP XS+ EA reagent for three hours at room temperature. Microplates were read following signal generation with a PerkinElmer Envision instrument utilizing chemiluminescent signal detection. Compound activity was analyzed using CBIS data analysis suite (ChemInnovation, CA). Percentage activity was calculated using the following formula:
as §1, §2

Row | SMILES | EC50 (GLP-1 Receptor [1]) [nM] | EC50 (GLP-1 Receptor [2]) [nM]
1 | O=C(O)c1ccc2nc(CC3CC=C(c4ncc(F)c(OCc5ccc(Cl)cn5)n4)CC3)n(C[C@@H]3CCO3)c2n1 (stereo partly drawn) [Compound 120a, 2-((4-(4-((5-chloropyridin-2-yl)methoxy)-5-fluoropyrimidin-2-yl)cyclohex-3-en-1-yl)methyl)-3-(((S)-oxetan-2-yl)methyl)-3H-imidazo[4,5-b]pyridine-5-carboxylic acid] | 0.12 | –
2 | O=C(O)c1ccc2nc(Cn3ccc(-c4cccc(OCc5ccc(Cl)cc5F)n4)cc3=O)n(C[C@@H]3CCO3)c2n1 [Compound 103aw, (S)-2-((6-((4-chloro-2-fluorobenzyl)oxy)-2′-oxo-[2,4′-bipyridin]-1′(2′H)-yl)methyl)-3-(oxetan-2-ylmethyl)-3H-imidazo[4,5-b]pyridine-5-carboxylic acid] | 0.89 | 0.38
3 | O=C(O)c1cnc2nc(CC3CC=C(c4nccc(OCc5ccc(Cl)cc5F)n4)CC3)n(C[C@@H]3CCO3)c2c1 (stereo partly drawn) [Compound 119a, 2-((4-(4-((4-chloro-2-fluorobenzyl)oxy)pyrimidin-2-yl)cyclohex-3-en-1-yl)methyl)-1-(((S)-oxetan-2-yl)methyl)-1H-imidazo[4,5-b]pyridine-6-carboxylic acid] | 0.17 | –
4 | O=C(O)c1cnc2nc(CC3CC=C(c4cccc(OCc5ccc(Cl)cc5F)n4)CC3)n(C[C@@H]3CCO3)c2c1 (stereo partly drawn) [Compound 118a, 2-((4-(6-((4-chloro-2-fluorobenzyl)oxy)pyridin-2-yl)cyclohex-3-en-1-yl)methyl)-1-(((S)-oxetan-2-yl)methyl)-1H-imidazo[4,5-b]pyridine-6-carboxylic acid] | 0.02 | –
5 | N#Cc1ccc(COc2nc(C3=CCC(Cc4nc5ccc(C(=O)O)nc5n4CC4(C#N)CC4)CC3)ncc2F)c(F)c1 (stereo not drawn) [Compound 123, 2-((4-(4-((4-cyano-2-fluorobenzyl)oxy)-5-fluoropyrimidin-2-yl)cyclohex-3-en-1-yl)methyl)-3-((1-cyanocyclopropyl)methyl)-3H-imidazo[4,5-b]pyridine-5-carboxylic acid] | 0.067 | –
6 | O=C(O)c1ccc2nc(CC3CC=C(c4ccc(F)c(OCc5ccc(Cl)cc5F)n4)CC3)n(C[C@@H]3CCO3)c2n1 (stereo partly drawn) [Compound 113a, 2-((4-(6-((4-chloro-2-fluorobenzyl)oxy)-5-fluoropyridin-2-yl)cyclohex-3-en-1-yl)methyl)-3-(((S)-oxetan-2-yl)methyl)-3H-imidazo[4,5-b]pyridine-5-carboxylic acid] | 0.015 | –
7 | O=C(O)c1ccc2nc(CC3CC=C(c4cccc(OCc5ccc(Cl)cc5F)n4)CC3)n(C[C@@H]3CCO3)c2n1 (single isomer, unassigned) [Compound 102c] | 0.044 | –
8 | O=C(O)c1ccc2nc(CC3CC=C(c4cccc(OCc5ccc(Cl)cc5F)n4)CC3)n(C[C@@H]3CCO3)c2n1 (single isomer, unassigned) [Compound 102b] | 0.007 | –
9 | CC#CCn1c(CC2CC=C(c3cccc(OCc4ccc(Cl)cc4F)n3)CC2)nc2ccc(C(=O)O)nc21 (stereo not drawn) [Compound 128, 3-(but-2-yn-1-yl)-2-((4-(6-((4-chloro-2-fluorobenzyl)oxy)pyridin-2-yl)cyclohex-3-en-1-yl)methyl)-3H-imidazo[4,5-b]pyridine-5-carboxylic acid] | 59 | –
10 | N#Cc1ccc(COc2nc(C3=CCC(Cc4nc5ccc(C(=O)O)nc5n4C[C@@H]4CCO4)CC3)ccc2F)c(F)c1 (stereo partly drawn) [Compound 115a, 2-((4-(6-((4-cyano-2-fluorobenzyl)oxy)-5-fluoropyridin-2-yl)cyclohex-3-en-1-yl)methyl)-3-(((S)-oxetan-2-yl)methyl)-3H-imidazo[4,5-b]pyridine-5-carboxylic acid] | 0.018 | –
11 | N#CC1(Cn2c(CC3CC=C(c4ncc(F)c(OCc5ccc(Cl)cc5F)n4)CC3)nc3ccc(C(=O)O)nc32)CC1 (stereo not drawn) [Compound 125, 2-((4-(4-((4-chloro-2-fluorobenzyl)oxy)-5-fluoropyrimidin-2-yl)cyclohex-3-en-1-yl)methyl)-3-((1-cyanocyclopropyl)methyl)-3H-imidazo[4,5-b]pyridine-5-carboxylic acid] | 0.045 | –
12 | CC(C)(C#N)Cn1c(CC2CC=C(c3ncc(F)c(OCc4ccc(Cl)cc4F)n3)CC2)nc2ccc(C(=O)O)nc21 (stereo not drawn) [Compound 126, 2-((4-(4-((4-chloro-2-fluorobenzyl)oxy)-5-fluoropyrimidin-2-yl)cyclohex-3-en-1-yl)methyl)-3-(2-cyano-2-methylpropyl)-3H-imidazo[4,5-b]pyridine-5-carboxylic acid] | 0.37 | –
13 | O=C(O)c1cc2c(cn1)nc(CC1CC=C(c3cccc(OCc4ccc(Cl)cc4F)n3)CC1)n2C[C@@H]1CCO1 (stereo partly drawn) [Compound 116a, 2-((4-(6-((4-chloro-2-fluorobenzyl)oxy)pyridin-2-yl)cyclohex-3-en-1-yl)methyl)-1-(((S)-oxetan-2-yl)methyl)-1H-imidazo[4,5-c]pyridine-6-carboxylic acid] | 0.73 | –
14 | O=C(O)c1ccc2nc(CC3CC=C(c4ncc(F)c(OCc5ccc(Cl)cc5F)n4)CC3)n(C[C@@H]3CCO3)c2n1 (single isomer, unassigned) [Compound 114b] | 0.012 | –
15 | N#Cc1ccc(COc2cccc(C3=CCC(Cc4nc5cnc(C(=O)O)cc5n4C[C@@H]4CCO4)CC3)n2)c(F)c1 (stereo partly drawn) [Compound 117a, 2-((4-(6-((4-cyano-2-fluorobenzyl)oxy)pyridin-2-yl)cyclohex-3-en-1-yl)methyl)-1-(((S)-oxetan-2-yl)methyl)-1H-imidazo[4,5-c]pyridine-6-carboxylic acid] | 0.37 | –
16 | O=C(O)c1ccc2nc(CC3CC=C(c4cccc(OCc5ccc(Cl)cn5)n4)CC3)n(C[C@@H]3CCO3)c2n1 (stereo partly drawn) [Compound 121a, 2-((4-(6-((5-chloropyridin-2-yl)methoxy)pyridin-2-yl)cyclohex-3-en-1-yl)methyl)-3-(((S)-oxetan-2-yl)methyl)-3H-imidazo[4,5-b]pyridine-5-carboxylic acid] | 0.027 | –
17 | COCCn1c(CC2CC=C(c3ncc(F)c(OCc4ccc(Cl)cc4F)n3)CC2)nc2ccc(C(=O)O)nc21 (stereo not drawn) [Compound 127] | 0.83 | –
18 | CC(C)(C#N)Cn1c(CC2CC=C(c3ncc(F)c(OCc4ccc(C#N)cc4F)n3)CC2)nc2ccc(C(=O)O)nc21 (stereo not drawn) [Compound 124, 2-((4-(4-((4-cyano-2-fluorobenzyl)oxy)-5-fluoropyrimidin-2-yl)cyclohex-3-en-1-yl)methyl)-3-(2-cyano-2-methylpropyl)-3H-imidazo[4,5-b]pyridine-5-carboxylic acid] | 0.39 | –
19 | N#Cc1ccc(COc2cccc(C3=CCC(Cc4nc5ccc(C(=O)O)nc5n4C[C@@H]4CCO4)CC3)n2)c(F)c1 (single isomer, unassigned) [Compound 101b] | 0.0088 | –
20 | N#Cc1ccc(COc2nc(C3=CCC(Cc4nc5ccc(C(=O)O)nc5n4CC4CC4)CC3)ncc2F)c(F)c1 (stereo not drawn) [Compound 122, 2-((4-(4-((4-cyano-2-fluorobenzyl)oxy)-5-fluoropyrimidin-2-yl)cyclohex-3-en-1-yl)methyl)-3-(cyclopropylmethyl)-3H-imidazo[4,5-b]pyridine-5-carboxylic acid] | 0.43 | –
21 | O=C(O)c1ccc2nc(CC3CC=C(c4ncc(F)c(OCc5ccc(Cl)cc5F)n4)CC3)n(C[C@@H]3CCO3)c2n1 (stereo partly drawn) [Compound 114a, 2-((4-(4-((4-chloro-2-fluorobenzyl)oxy)-5-fluoropyrimidin-2-yl)cyclohex-3-en-1-yl)methyl)-3-(((S)-oxetan-2-yl)methyl)-3H-imidazo[4,5-b]pyridine-5-carboxylic acid] | 0.02 | –
22 | O=C(O)c1ccc2nc(CC3CC=C(c4ncc(F)c(OCc5ccc(Cl)cc5F)n4)CC3)n(C[C@@H]3CCO3)c2n1 (single isomer, unassigned) [Compound 114c] | 0.13 | –
23 | N#Cc1ccc(COc2cccc(C3=CCC(Cc4nc5ccc(C(=O)O)nc5n4C[C@@H]4CCO4)CC3)n2)c(F)c1 (single isomer, unassigned) [Compound 101c] | 0.083 | –
